We go through four molecules from publication PMC10634366 (Microbiology, 2023).

Experiment [1] has as its target T1, Asuc_0142 (DcuAAs) (Actinobacillus succinogenes, UniProt A6VKM5).
T1 construct: full-length gene from 130Z genomic DNA in pBAD30-derived pMB61 (pMB147), expressed in E. coli IMW529 lacking DcuA, DcuB, DcuC, TtdT and CitT
Put plainly: inhibition of […] min […]fumarate uptake, E. coli IMW529 cells. In kind it is cell-based. The settings on record: 100 µM [14C]fumarate; anaerobic, pH 7, 37 °C.

Experiment [2] concerns the target T1, Asuc_0142 (DcuAAs). The experiment is described as above. The class given is cell-based. The settings on record: read-out: % inhibition at 1 mM.

With `O=C(O)CCC(=O)O` [succinate], on Asuc_0142 (DcuAAs) [1], the “% inhibition at 1 mM” value is “the inhibition by succinate and L-malate was only moderate”.

Broadly, the inhibition is the drop in the measured response relative to a control, in per cent. As to `O=C(O)/C=C/C(=O)O` [fumarate], on Asuc_0142 (DcuAAs) [2], the inhibition at 1000 µM is 82%.

As to `O=C(O)C[C@H](O)C(=O)O` [L-malate], the “% inhibition at 1 mM” value at Asuc_0142 (DcuAAs) [1] was “the inhibition by succinate and L-malate was only moderate”.

For `N[C@@H](CC(=O)O)C(=O)O` [L-aspartate], the inhibition at 1000 µM at Asuc_0142 (DcuAAs) [2] came to 95%.
